Data from ChEMBL document CHEMBL2203055, “From α4β2 Nicotinic Ligands to the Discovery of σ1 Receptor Ligands: Pharmacophore Analysis and Rational Design” (ACS Med Chem Lett, 2012).

Legend:
[1] = molecular target: Neuronal acetylcholine receptor; alpha4/beta4 (Homo sapiens) (UniProt P30926+P43681); experiment: Displacement of [3H]epibatidine from alpha4beta4 nAChR at 10 uM after 4 hrs by liquid scintillation counting analysis; format: protein-complex assay
[2] = molecular target: Neuronal acetylcholine receptor; alpha4/beta2 (Rattus norvegicus) (UniProt P09483+P12390); experiment: Displacement of [3H]epibatidine from alpha4beta2* nAChR in rat forebrain at 10 uM after 4 hrs by liquid scintillation counting analysis
[3] = molecular target: Neuronal acetylcholine receptor; alpha4/beta2 (Homo sapiens) (UniProt P17787+P43681); experiment: Displacement of [3H]epibatidine from alpha4beta2 nAChR at 10 uM after 4 hrs by liquid scintillation counting analysis; format: protein-complex assay
[4] = molecular target: Neuronal acetylcholine receptor; alpha3/beta4 (Homo sapiens) (UniProt P30926+P32297); experiment: Displacement of [3H]epibatidine from alpha3beta4 nAChR at 10 uM after 4 hrs by liquid scintillation counting analysis; format: protein-complex assay
[5] = molecular target: Neuronal acetylcholine receptor; alpha3/beta2 (Homo sapiens) (UniProt P17787+P32297); experiment: Displacement of [3H]epibatidine from alpha3beta2 nAChR at 10 uM after 4 hrs by liquid scintillation counting analysis; format: protein-complex assay
[6] = molecular target: Neuronal acetylcholine receptor; alpha2/beta4 (Homo sapiens) (UniProt P30926+Q15822); experiment: Displacement of [3H]epibatidine from alpha2beta4 nAChR at 10 uM after 4 hrs by liquid scintillation counting analysis; format: protein-complex assay
[7] = molecular target: Neuronal acetylcholine receptor; alpha2/beta2 (Homo sapiens) (UniProt P17787+Q15822); experiment: Displacement of [3H]epibatidine from alpha2beta2 nAChR at 10 uM after 4 hrs by liquid scintillation counting analysis; format: protein-complex assay
[8] = Selectivity ratio of Ki for human recombinant NET to Ki for sigma 1 receptor in rat brain membrane; format: cell membranes
[9] = Selectivity ratio of Ki for human recombinant DAT to Ki for sigma 1 receptor in rat brain membrane; format: cell membranes
[10] = molecular target: Sodium-dependent noradrenaline transporter (Homo sapiens, UniProt P23975); experiment: Displacement of [3H]nisoxetine from human recombinant NET after 1.5 hrs by microbeta scintillation counting analysis
Chain of Sodium-dependent noradrenaline transporter (P23975 whole entry): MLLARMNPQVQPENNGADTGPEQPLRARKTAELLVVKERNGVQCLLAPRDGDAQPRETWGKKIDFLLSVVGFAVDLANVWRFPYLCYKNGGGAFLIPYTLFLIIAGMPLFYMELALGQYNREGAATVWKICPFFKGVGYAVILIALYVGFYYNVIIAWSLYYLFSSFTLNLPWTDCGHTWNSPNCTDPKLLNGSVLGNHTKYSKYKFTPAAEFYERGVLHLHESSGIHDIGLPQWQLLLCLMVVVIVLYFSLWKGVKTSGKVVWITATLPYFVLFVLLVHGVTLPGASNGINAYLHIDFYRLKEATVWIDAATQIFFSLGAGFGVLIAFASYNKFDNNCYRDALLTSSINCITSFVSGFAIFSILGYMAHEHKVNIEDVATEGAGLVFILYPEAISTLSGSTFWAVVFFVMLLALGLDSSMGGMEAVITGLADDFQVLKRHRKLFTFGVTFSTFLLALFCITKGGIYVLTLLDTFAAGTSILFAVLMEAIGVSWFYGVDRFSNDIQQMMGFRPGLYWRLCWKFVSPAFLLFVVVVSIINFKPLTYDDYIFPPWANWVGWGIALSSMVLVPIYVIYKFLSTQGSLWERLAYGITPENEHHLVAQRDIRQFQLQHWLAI

[11] = molecular target: Histamine H2 receptor (Homo sapiens, UniProt P25021); experiment: Displacement of [3H]tiotidine from human recombinant histamine H2 receptor after 1.5 hrs by microbeta scintillation counting analysis
[12] = molecular target: Histamine H1 receptor (Homo sapiens, UniProt P35367); experiment: Displacement of [3H]pyrilamine from human recombinant histamine H1 receptor after 1.5 hrs by microbeta scintillation counting analysis
[13] = molecular target: Beta-2 adrenergic receptor (Homo sapiens, UniProt P07550); experiment: Displacement of [125I]Iodopindolol from beta 2 adrenergic receptor after 1.5 hrs by microbeta scintillation counting analysis
[14] = molecular target: 5-hydroxytryptamine receptor 2C (Homo sapiens, UniProt P28335); experiment: Displacement of [3H]mesulergine from human recombinant 5-HT2C receptor after 1.5 hrs by microbeta scintillation counting analysis
[15] = molecular target: 5-hydroxytryptamine receptor 2B (Homo sapiens, UniProt P41595); experiment: Displacement of [3H]LSD from human recombinant 5-HT2B receptor after 1.5 hrs by microbeta scintillation counting analysis
[16] = molecular target: Histamine H4 receptor (Homo sapiens) (UniProt Q9H3N8); experiment: Displacement of [3H]histamine from histamine H4 receptor at 10 uM after 1.5 hrs by microbeta scintillation counting analysis
Chain of Histamine H4 receptor (Homo sapiens) (Q9H3N8 whole entry): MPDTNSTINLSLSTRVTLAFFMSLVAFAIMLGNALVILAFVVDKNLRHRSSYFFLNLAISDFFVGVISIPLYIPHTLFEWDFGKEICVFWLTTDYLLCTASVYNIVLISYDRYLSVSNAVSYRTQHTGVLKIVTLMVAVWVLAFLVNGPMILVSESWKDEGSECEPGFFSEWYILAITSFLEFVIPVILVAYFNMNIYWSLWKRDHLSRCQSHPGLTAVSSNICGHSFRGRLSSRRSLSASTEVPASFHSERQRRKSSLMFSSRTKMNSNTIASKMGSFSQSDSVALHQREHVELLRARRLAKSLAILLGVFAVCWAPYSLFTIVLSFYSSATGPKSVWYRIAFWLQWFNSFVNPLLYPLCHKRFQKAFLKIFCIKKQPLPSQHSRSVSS

[17] = molecular target: Histamine H3 receptor (Homo sapiens) (UniProt Q9Y5N1); experiment: Displacement of [3H]alpha-methylhistamine from human recombinant histamine H3 receptor at 10 uM after 1.5 hrs by microbeta scintillation counting analysis
Chain of Histamine H3 receptor (Homo sapiens) (Q9Y5N1 whole entry): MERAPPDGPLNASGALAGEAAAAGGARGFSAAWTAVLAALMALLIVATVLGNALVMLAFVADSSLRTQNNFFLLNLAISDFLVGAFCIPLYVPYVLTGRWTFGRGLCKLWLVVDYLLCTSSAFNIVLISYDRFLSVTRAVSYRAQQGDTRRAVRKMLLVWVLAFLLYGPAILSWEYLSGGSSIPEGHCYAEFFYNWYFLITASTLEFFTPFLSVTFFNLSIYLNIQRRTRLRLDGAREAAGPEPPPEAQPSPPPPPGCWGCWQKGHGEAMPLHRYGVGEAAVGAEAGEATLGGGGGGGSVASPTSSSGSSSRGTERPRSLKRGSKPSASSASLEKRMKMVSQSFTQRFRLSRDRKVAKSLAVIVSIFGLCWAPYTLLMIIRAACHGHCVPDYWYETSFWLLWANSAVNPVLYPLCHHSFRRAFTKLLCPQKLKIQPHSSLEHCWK

[18] = molecular target: Delta-type opioid receptor (Homo sapiens) (UniProt P41143); experiment: Displacement of [3H]DADLE from human recombinant delta-opioid receptor at 10 uM after 1.5 hrs by microbeta scintillation counting analysis
Chain of Delta-type opioid receptor (Homo sapiens) (P41143 whole entry): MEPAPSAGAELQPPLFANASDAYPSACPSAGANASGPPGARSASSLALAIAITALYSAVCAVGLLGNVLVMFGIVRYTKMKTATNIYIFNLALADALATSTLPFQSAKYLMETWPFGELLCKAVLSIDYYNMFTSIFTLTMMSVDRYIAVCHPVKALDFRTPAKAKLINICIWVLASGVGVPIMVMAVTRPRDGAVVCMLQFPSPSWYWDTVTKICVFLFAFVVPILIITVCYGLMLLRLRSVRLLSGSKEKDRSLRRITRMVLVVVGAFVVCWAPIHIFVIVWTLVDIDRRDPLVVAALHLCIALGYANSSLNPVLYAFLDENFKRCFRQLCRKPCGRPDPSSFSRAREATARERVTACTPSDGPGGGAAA

[19] = molecular target: Kappa-type opioid receptor (Rattus norvegicus) (UniProt P34975); experiment: Displacement of [3H]U69593 from rat kappa-opioid receptor at 10 uM after 1.5 hrs by microbeta scintillation counting analysis
[20] = molecular target: Muscarinic acetylcholine receptor M4 (Homo sapiens) (UniProt P08173); experiment: Displacement of [3H]QNB from human recombinant muscarinic M4 receptor at 10 uM after 1.5 hrs by microbeta scintillation counting analysis
Chain of Muscarinic acetylcholine receptor M4 (Homo sapiens) (P08173 whole entry): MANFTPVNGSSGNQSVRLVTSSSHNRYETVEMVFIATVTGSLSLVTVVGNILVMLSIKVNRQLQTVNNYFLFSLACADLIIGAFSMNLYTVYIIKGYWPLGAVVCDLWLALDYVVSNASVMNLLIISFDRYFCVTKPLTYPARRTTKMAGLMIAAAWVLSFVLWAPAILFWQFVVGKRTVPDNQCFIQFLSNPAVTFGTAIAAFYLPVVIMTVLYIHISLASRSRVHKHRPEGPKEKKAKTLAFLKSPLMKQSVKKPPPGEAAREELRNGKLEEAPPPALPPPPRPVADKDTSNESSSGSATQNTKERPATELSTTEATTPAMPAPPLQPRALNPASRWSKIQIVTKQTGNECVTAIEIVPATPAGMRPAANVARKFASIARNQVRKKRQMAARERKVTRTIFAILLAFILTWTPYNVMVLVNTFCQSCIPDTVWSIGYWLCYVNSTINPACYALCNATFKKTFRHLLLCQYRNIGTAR

[21] = molecular target: Muscarinic acetylcholine receptor M3 (Homo sapiens) (UniProt P20309); experiment: Displacement of [3H]QNB from human recombinant muscarinic M3 receptor at 10 uM after 1.5 hrs by microbeta scintillation counting analysis
Chain of Muscarinic acetylcholine receptor M3 (Homo sapiens) (P20309 whole entry, looked up): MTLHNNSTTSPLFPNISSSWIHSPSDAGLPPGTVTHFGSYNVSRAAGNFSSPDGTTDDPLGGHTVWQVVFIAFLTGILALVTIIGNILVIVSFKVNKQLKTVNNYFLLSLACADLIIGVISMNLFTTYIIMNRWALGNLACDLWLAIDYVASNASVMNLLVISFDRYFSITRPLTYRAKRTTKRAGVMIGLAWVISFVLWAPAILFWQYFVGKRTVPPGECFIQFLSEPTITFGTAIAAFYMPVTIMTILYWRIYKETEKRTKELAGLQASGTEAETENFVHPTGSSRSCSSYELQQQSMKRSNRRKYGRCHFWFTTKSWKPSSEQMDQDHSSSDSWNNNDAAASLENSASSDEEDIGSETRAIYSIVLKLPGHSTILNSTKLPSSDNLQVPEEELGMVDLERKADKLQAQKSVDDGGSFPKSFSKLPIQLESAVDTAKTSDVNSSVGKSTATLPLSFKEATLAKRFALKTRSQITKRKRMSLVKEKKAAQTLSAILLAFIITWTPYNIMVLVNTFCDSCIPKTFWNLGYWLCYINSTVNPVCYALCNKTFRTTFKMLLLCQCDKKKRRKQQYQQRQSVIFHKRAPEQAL

[22] = molecular target: Beta-1 adrenergic receptor (Homo sapiens) (UniProt P08588); experiment: Displacement of [125I]Iodopindolol from beta 1 adrenergic receptor at 10 uM after 1.5 hrs by microbeta scintillation counting analysis
[23] = molecular target: Alpha-2A adrenergic receptor (Homo sapiens) (UniProt P08913); experiment: Displacement of […] from alpha 2A adrenergic receptor at 10 uM after 40 mins by microbeta scintillation counting analysis
Chain of Alpha-2A adrenergic receptor (Homo sapiens) (P08913 whole entry): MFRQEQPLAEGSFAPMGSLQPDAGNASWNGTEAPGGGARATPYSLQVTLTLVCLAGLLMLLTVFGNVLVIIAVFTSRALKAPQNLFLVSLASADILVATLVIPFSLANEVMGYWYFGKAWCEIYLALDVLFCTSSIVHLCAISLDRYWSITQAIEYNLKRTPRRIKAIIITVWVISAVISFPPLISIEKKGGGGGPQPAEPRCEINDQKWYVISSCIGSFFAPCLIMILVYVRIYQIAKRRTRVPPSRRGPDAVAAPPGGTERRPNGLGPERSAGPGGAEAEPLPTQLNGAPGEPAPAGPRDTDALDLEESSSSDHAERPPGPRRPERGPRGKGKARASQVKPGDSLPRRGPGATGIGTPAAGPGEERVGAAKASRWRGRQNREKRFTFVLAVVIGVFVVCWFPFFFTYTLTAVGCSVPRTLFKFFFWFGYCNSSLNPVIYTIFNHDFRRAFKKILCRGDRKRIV

[24] = molecular target: Alpha-1B adrenergic receptor (Homo sapiens) (UniProt P35368); experiment: Displacement of [3H]prazosin from alpha 1B adrenergic receptor at 10 uM after 1 hr by microbeta scintillation counting analysis
Chain of Alpha-1B adrenergic receptor (Homo sapiens) (P35368 whole entry): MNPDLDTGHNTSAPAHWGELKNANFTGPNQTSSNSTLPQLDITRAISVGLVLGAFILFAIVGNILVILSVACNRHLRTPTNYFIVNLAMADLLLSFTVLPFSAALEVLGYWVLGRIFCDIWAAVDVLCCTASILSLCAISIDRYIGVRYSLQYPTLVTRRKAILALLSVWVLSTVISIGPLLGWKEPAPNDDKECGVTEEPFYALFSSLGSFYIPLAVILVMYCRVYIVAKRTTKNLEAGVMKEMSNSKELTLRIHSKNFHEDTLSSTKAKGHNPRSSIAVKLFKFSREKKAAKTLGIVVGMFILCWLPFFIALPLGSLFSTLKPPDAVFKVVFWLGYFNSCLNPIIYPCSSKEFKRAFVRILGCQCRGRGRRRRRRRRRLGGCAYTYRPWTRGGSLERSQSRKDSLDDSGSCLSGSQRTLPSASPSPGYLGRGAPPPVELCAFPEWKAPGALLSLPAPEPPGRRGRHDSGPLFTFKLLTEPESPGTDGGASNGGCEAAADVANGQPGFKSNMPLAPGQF

[25] = molecular target: D(1A) dopamine receptor (Homo sapiens) (UniProt P21728); experiment: Displacement of [3H]SCH23390 from human recombinant D1 receptor at 10 uM after 1.5 hrs by microbeta scintillation counting analysis
Chain of D(1A) dopamine receptor (Homo sapiens) (P21728 whole entry): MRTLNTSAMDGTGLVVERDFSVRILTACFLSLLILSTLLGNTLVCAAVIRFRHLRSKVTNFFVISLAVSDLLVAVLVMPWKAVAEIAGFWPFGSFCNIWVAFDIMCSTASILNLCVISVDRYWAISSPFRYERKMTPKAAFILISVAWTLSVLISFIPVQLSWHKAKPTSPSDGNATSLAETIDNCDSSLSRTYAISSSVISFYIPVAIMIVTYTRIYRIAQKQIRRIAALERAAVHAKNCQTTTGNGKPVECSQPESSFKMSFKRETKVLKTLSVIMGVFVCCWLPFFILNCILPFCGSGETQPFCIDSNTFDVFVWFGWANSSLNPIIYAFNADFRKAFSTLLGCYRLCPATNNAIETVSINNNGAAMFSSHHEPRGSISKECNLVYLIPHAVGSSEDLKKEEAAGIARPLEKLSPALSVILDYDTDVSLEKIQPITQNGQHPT

[26] = molecular target: 5-hydroxytryptamine receptor 1A (Homo sapiens) (UniProt P08908); experiment: Displacement of [3H]-8-OH-DPAT from human recombinant 5-HT1A receptor at 10 uM after 1.5 hrs by microbeta scintillation counting analysis
Chain of 5-hydroxytryptamine receptor 1A (Homo sapiens) (P08908 whole entry): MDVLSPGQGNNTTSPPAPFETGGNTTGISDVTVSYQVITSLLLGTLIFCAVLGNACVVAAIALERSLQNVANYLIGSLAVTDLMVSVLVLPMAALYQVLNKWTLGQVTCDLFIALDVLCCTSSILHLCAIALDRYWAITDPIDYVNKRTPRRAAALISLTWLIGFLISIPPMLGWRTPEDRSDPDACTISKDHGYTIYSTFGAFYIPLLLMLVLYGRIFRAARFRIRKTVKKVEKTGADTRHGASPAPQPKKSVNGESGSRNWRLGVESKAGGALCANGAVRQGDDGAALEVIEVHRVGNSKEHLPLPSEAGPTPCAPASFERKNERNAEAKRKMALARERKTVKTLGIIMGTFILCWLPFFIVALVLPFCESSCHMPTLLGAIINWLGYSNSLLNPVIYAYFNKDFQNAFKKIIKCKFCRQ

[27] = Displacement of [3H]DTG from sigma 2 receptor in rat PC12 cell membrane after 2 hrs by microbeta scintillation counting analysis; format: cell membranes; conditions: pc-12
[28] = molecular target: 5-hydroxytryptamine receptor 6 (Homo sapiens, UniProt P50406); experiment: Displacement of [3H]LSD from human recombinant 5-HT6 receptor after 1.5 hrs by microbeta scintillation counting analysis

Compound	Ki [10] [µM]	Ki [14] [µM]	Efficacy [16] [%]	Efficacy [17] [%]	Efficacy [18] [%]	Efficacy [19] [%]	Efficacy [20] [%]	Efficacy [21] [%]	Efficacy [22] [%]	Efficacy [23] [%]	Efficacy [24] [%]	Efficacy [25] [%]	Efficacy [26] [%]	Ki [27] [µM]	further results
c1ccc(OCc2cc(OC[C@@H]3CCCN3)no2)cc1	0.203	> 10	26.5	-4.9	10.3	9.4	33.6	12.2	-1.2	36.1	27.8	-5.7	34.4	1.31	Activity [1]: < 50%; Activity [2]: < 50%; Activity [3]: < 50%; Activity [4]: < 50%; Activity [5]: < 50%; Activity [6]: < 50%; Activity [7]: < 50%; Ratio Ki [8]: 50; Ratio Ki [9]: 90; Ki [11]: 5.16 µM; Ki [12]: > 10 µM; Ki [13]: > 10 µM; Ki [15]: 5.1 µM
c1ccc(OCc2cc(OC[C@@H]3CCN3)no2)cc1	0.191	> 10	42.6	4.7	4.9	6.7	35.1	47.6	22.1	17.4	18.1	6.1	26.3	1.47	Ki [28]: > 10 µM
